Results on two compounds are retold here after patent publication US8008425B2, “Thiophene compound having sulfonyl group and process for producing the same” (Nissan Chemical Industries, Ltd., priority 2005, dated 2011).

The data set can be described thus: Solubility test. The format is physicochemical. As to conditions: 25° C., ultrasonic waves, 5 mg, solvent added 50 μL by 50 μL. On the procedure: The solubility of each of the sulfonylthiophene compounds synthesized in Examples 21 and 22 was determined under ultrasonic waves at 25° C. by adding, to aliquots (5 mg) of the sulfonylthiophene compound, tetrahydrofuran (THF), toluene, N,N-dimethylformamide (DMF), chloroform, ethyl acetate and ethanol 50 μL by 50 μL, respectively, until they were dissolved. The level of solubility was ranked in accordance with the following standards. • ⊚: Dissolved with 50 μL (concentration: 10%) • ◯: Dissolved with 100 μL (concentration: 5%) • Δ: Dissolved with 200 μL (concentration: 2.5%) • X: Not dissolved even by the addition of 500 μL (concentration: 1% or lower)

The structures appear in SMILES notation.

As for `CCCCCCCCS(=O)(=O)c1c(-c2ccc(N(c3ccccc3)c3ccccc3)cc2)sc(-c2ccc(N(c3ccccc3)c3ccccc3)cc2)c1S(=O)(=O)CCCCCCCC` [Example 21, 4,4′-{3,4-bis(octane-1-sulfonyl)-thiophene-2,5-diyl}bis(N,N-diphenylaniline)], the level of solubility entry is given as “⊚ (Dissolved with 50 μL (concentration: 10%))” (Chloroform); “Δ (Dissolved with 200 μL (concentration: 2.5%))” (DMF); “X (Not dissolved even by the addition of 500 μL (concentration: 1% or lower))” (Ethanol); “◯ (Dissolved with 100 μL (concentration: 5%))” (Ethyl acetate); “◯ (Dissolved with 100 μL (concentration: 5%))” (THF); “◯ (Dissolved with 100 μL (concentration: 5%))” (Toluene).
As to `CCCCCCCCS(=O)(=O)c1cc(-c2ccc(N(c3ccccc3)c3ccccc3)cc2)sc1-c1ccc(N(c2ccccc2)c2ccccc2)cc1` [Example 22, 4,4′-{3-(octane-1-sulfonyl)-thiophene-2,5-diyl}bis(N,N-diphenylaniline)], the level of solubility entry is reported as “⊚ (Dissolved with 50 μL (concentration: 10%))” (Chloroform); “⊚ (Dissolved with 50 μL (concentration: 10%))” (DMF); “X (Not dissolved even by the addition of 500 μL (concentration: 1% or lower))” (Ethanol); “⊚ (Dissolved with 50 μL (concentration: 10%))” (Ethyl acetate); “⊚ (Dissolved with 50 μL (concentration: 10%))” (THF); “⊚ (Dissolved with 50 μL (concentration: 10%))” (Toluene).
